Test results as given in paper PMC5620277, “The histone methyltransferase EZH2 as a druggable target in SHH medulloblastoma cancer stem cells” (Oncotarget, 2017).
Where two headings read alike, the source gives them in different places.

Tests used:
[1] = system: H3K27me3 in cerebellum and brain; assay: H3K27me3 levels in cerebellum and brain of wild type mice after i.p. treatment; type: in vivo, mouse
Procedure: CD1 wild-type mice were treated intra-peritoneally with 20 μMoles/Kg of MC3629 (n=8 for each group). Treatment was performed at the age of 8 and 10 days post natal and mice were sacrificed at 12 days post natal. Brain and cerebellum tissues were collected for analysis.

[2] = system: mMB-SLCs; assay: Cell viability, MTS assay, mMB-SLCs; type: cell-based, mouse
Procedure: In both cell lines, we determined the lowest useful dose of MC3629 (5 μM) and the minimum effective time (48 h) (Figure 2D, 2E and Supplementary Figure 4A and 4B for data at 24 and 72 h). We next evaluated the performance of MC3629 on MB-SLCs in terms of cell viability in regards to other EZH2i in use, confirming the dose selection (Supplementary Figure 4C).
(§1) To evaluate cell viability cells were plated at a density of 5×10^3 cells/well in 96-well plates and were incubated with MTS solution (CellTiter 96® AQueous One Solution Promega).

[3] = system: hMB-SLCs; assay: Western Blot of H3K27me3, PCNA, cleaved caspase 3 in hMB-SLCs; type: cell-based, human; conditions: 5 μM, 48 h
Procedure: as §1
Western blots were performed according to standard procedures. Briefly, protein lysates were prepared using RIPA buffer with fresh protease inhibitors. Lysates were separated on SDS polyacrylamide gels. Proteins were transferred on nitrocellulose membrane (0.45 micron) (PerkinElmer). Membranes were blocked for 1 h at room temperature in 5% nonfat dry milk and incubated overnight at 4°C with antibodies against EZH2 (4905S Cell signaling), H3K27me3 (07-449 Millipore), PCNA (2586 Cell signaling), ACTIN (I-19 sc-1616; Santa Cruz Biotechnology), GAPDH (ab9484, Abcam), cleaved CSP-3 (D-175 9661S; Cell Signaling) and H3 (ab1971, Abcam). HRP-conjugated secondary antibodies (Santa Cruz Biotechnology) were used in combination with enhanced chemiluminescence (ECL Amersham).

[4] = target: EZH1 complex (Homo sapiens, UniProt Q92800); assay: Methyltransferase panel: EZH1 complex; type: biochemical
Procedure: (§2) MC3629 was tested in the cell free enzymatic assay (EZH2/PRC2) in 10-dose IC50 mode with 2-fold serial dilution starting from 400 μM solution, using various histone substrates (histone H3/H4 octamer, histone H3/H4 tetramer, histone H3, and core histone) and SAM as the co-substrate. […] (Figure 2B, and Supplementary Figure 2).
(§3) The appropriate methyltransferase (MT) substrate (0.05 mg/ml core histone for EZH1 complex, 0.05 mg/ml oligonucleosomes for DOT1L, 5 μM histone H3 (1-21) peptide for G9a, 0.05 mg/ml nucleosomes for MLL1 complex, 0.05 mg/ml core histone for SET7/9, 5 μM histone H4 for PRMT1, and 0.001 mg/ml poly(dI-dC) for DNMT1) was added in freshly prepared Reaction Buffer (50 mM Tris-HCl (pH 8.5), 5 mM MgCl2, 50 mM NaCl, 0.01% Brij35, 1 mM DTT, 1% DMSO). The MT enzyme was delivered into the substrate solution and the mixture was mixed gently. Afterwards, the tested compound dissolved in DMSO was delivered into the enzyme/substrate reaction mixture by using Acoustic Technology (Echo 550, LabCyte Inc. Sunnyvale, CA) in nanoliter range, and 1 μM ^3H-SAM was also added into the reaction mixture to initiate the reaction. The reaction mixture was incubated for 1 h at 30°C and then it was delivered to filter-paper for detection. The data were analyzed using Excel and GraphPad Prism software for IC50 curve fits (for EZH1 complex).

[5] = target: PRMT1 (Homo sapiens, UniProt Q99873); assay: Methyltransferase panel: PRMT1; type: biochemical; conditions: substrate histone H4
Procedure: as §2, §3

[6] = target: T1, EZH2/PRC2 (Homo sapiens, UniProt Q15910); assay: EZH2/PRC2 cell free enzymatic assay (3H-SAM, filter-paper detection); type: biochemical
T1 construct: (amino acids 2-end) with N-terminal His tag; His tag (N); host or cells: baculovirus expression system
Procedure: as §2
Reagents: Reaction buffer; 50 mM Tris-HCl (pH 8.0), 50 mM NaCl, 1 mM EDTA, 1 mM DTT, 1 mM PMSF, 1% DMSO. Reaction Conditions: EZH2: Complex of human EZH2 (GenBank Accession No. NM_004456), (amino acids 2-end) with N-terminal His tag, MW= 86 kDa, human EED (NM_003797) (a-a 2-end) with N-terminal Flag tag, MW= 51 kDa, human SUZ12 (NM_015355) (a-a 2-end) with N-terminal His tag, MW = 87 kDa, Human AEBP2 (NM_153207) (a-a 2-end) with N-terminal His tag, MW= 53 kDa, and human RbAp48 (NM_005610) (a-a 2-end) with N-terminal His tag, MW = 48 kDa, co-expressed in baculovirus expression system. Substrate: 5 μM histone H3/H4 tetramer. Methyl donor: 1 μM S-adenosyl-L-[methyl-^3H]methionine (^3H-SAM). Enzyme: 100 nM EZH2 complex. Reaction Procedure: the indicated substrate was dissolved in freshly prepared Reaction Buffer; EZH2 was delivered into the substrate solution and mixed gently. The compound was dissolved in DMSO to a stock of 20 mM and was tested in a 10-dose IC50 mode with 2-fold serial dilution starting at 400 μM. The compound was delivered in DMSO into the EZH2 reaction mixture by using Acoustic Technology (Echo 550, LabCyte Inc. Sunnyvale, CA) in nanoliter range, and incubated for 15 min; ^3H-SAM was delivered into the reaction mixture to initiate the reaction; the reaction mixture was incubated for 1 h at 30°C and then delivered to filter-paper for detection; data were analyzed using Excel and GraphPad Prism 5 software for IC50 curve fits. For SAM competition experiments, the same procedure was used with different SAM concentration (1, 2.5. 5, and 10 μM) and H3/H4 octamer as the substrate.

[7] = system: DAOY-SLCs; assay: Cell viability, MTS assay, DAOY-SLCs; type: cell-based; conditions: 5 μM, after 48 h
Procedure: as §1

[8] = system: DAOY cells; assay: Cell viability, MTS assay, DAOY cells; type: cell-based; conditions: 5 μM, after 48 h
Procedure: as §1

Cc1cc(C)c(CNC(=O)c2cnn(-c3ccccc3)c2C)c(=O)[nH]1 [MC3629, N-((4,6-dimethyl-2-oxo-1,2-dihydropyridin-3-yl)methyl)-5-methyl-1-phenyl-1H-pyrazole-4-carboxamide]
H3K27me3 levels in brain ([1]; 20 μMol/Kg intra-peritoneal): reduced levels
H3K27me3 levels in cerebellum ([1]; 20 μMol/Kg intra-peritoneal, twice/week): significant reduction
ability to cross the BBB in vivo ([1]; inferred from reduced H3K27me3 in cerebellum and brain, 20 μMol/Kg i.p.): crosses the BBB
minimum effective time, cell viability [2]: 48 h
lowest useful dose, cell viability ([2]; dose- and time-dependent experiments): 5 µM
H3K27me3 and PCNA protein levels [3]: significantly impaired
apoptosis, level of cleaved caspase 3 [3]: induced apoptosis
inhibition at 200 µM ([4]; 200 μM, substrate histone H3/H4 octamer): 62.4%
IC50 ([4]; footnote of Supplementary Table 1): 138 µM
inhibition at 200 µM [5]: 5.7%
mechanism of inhibition, SAM competition experiments ([6]; histone H3/H4 octamer substrate, SAM 1, 2.5, 5, 10 μM): SAM-dependent mechanism of inhibition
IC50 ([6]; histone H3/H4 tetramer substrate, value printed in Figure 2B, read-out: IC50, EZH2/PRC2): 5.27 µM
IC50 ([6]; range over histone substrates (histone H3/H4 octamer, H3/H4 tetramer, histone H3, core histone), SAM co-substrate, 10-dose, 2-fold dilution from 400 μM, read-out: IC50 values, EZH2/PRC2): 5.27 to 15.4 µM
cell viability [7]: impaired cell viability
cell viability [8]: impaired cell viability
